Molecules are shown by their SMILES.

In general, melting point refers to the temperature of the solid-liquid transition.

`Cc1nc(N)c2nc(CCO)n(NC3CCOCC3)c2c1C` [Example 50, 2-[4-Amino-6,7-dimethyl-1-(tetrahydropyran-4-yl)amino-1H-imidazo[4,5-c]pyridin-2-yl]ethanol] returned a melting point of 190 to 192 °C.
The same measure for `OCc1nc2cnc3cccnc3c2n1NC1CCOCC1` [Example 38, [1-(Tetrahydro-2H-pyran-4-yl)amino-1H-imidazo[4,5-c][1,5]naphthyridin-2-yl]methanol]: 203 to 205 °C; for `Cc1nc(N)c2nc(CO)n(NC3CCOCC3)c2c1C` [Example 26, [4-Amino-6,7-dimethyl-1-(tetrahydropyran-4-yl)amino-1H-imidazo[4,5-c]pyridin-2-yl]methanol]: above 250 °C; for `CCOCc1nc2c(N)nc(C)c(C)c2n1NCc1ccccc1` [Example 21, N^1-Benzyl-2-ethoxymethyl-6,7-dimethyl-1H-imidazo[4,5-c]pyridine-1,4-diamine]: 149 to 151 °C.
The same measure for `Cc1nc(N)c2nc(CO)n(NC(C)C)c2c1C` [Example 12, (4-Amino-1-isopropylamino-6,7-dimethyl-1H-imidazo[4,5-c]pyridin-2-yl)methanol]: 257 to 259 °C; for `CCOCc1nc2c(N)nc(C)c(C)c2n1NCCCNC(=O)C1CCCCC1` [Example 14, N-{3-[(4-Amino-2-ethoxymethyl-6,7-dimethyl-1H-imidazo[4,5-c]pyridin-1-yl)amino]propyl}cyclohexanecarboxamide]: 166 to 168 °C.
Consider `CCOCc1nc2c(N)nc(C)c(C)c2n1NC1CCCCC1` [Example 17, N^1-Cyclohexyl-2-ethoxymethyl-6,7-dimethyl-1H-imidazo[4,5-c]pyridine-1,4-diamine], for which the melting point was in the range of 108 to 110 °C.
Consider `Nc1nc2cccnc2c2c1nc(CO)n2NCc1ccccc1` [Example 35, (4-Amino-1-benzylamino-1H-imidazo[4,5-c][1,5]naphthyridin-2-yl)methanol], for which the melting point fell in the range of 237 to 239 °C.
Turning to `CCOCc1nc2c(N)nc(C)c(C)c2n1N(C)C` [Example 9, 2-(Ethoxymethyl)-N^1,N^1,6,7-tetramethyl-1H-imidazo[4,5-c]pyridine-1,4-diamine], the melting point was 170 to 171 °C.
Then `Cc1nc(N)c2nc(C)n(NC(C)C)c2c1C` [Example 11, N^1-Isopropyl-2,6,7-trimethyl-1H-imidazo[4,5-c]pyridine-1,4-diamine], with 203 to 205 °C; and `CCOCc1nc2c(N)nc(C)cc2n1NC(C)C` [Example 3, 2-(Ethoxymethyl)-N^1-isopropyl-6-methyl-1H-imidazo[4,5-c]pyridine-1,4-diamine], with 139 to 141 °C.
Regarding `CCOCc1nc2c(N)nc(C)c(C)c2n1NCCCNS(C)(=O)=O` [Example 13, N-{3-[(4-Amino-2-ethoxymethyl-6,7-dimethyl-1H-imidazo[4,5-c]pyridin-1-yl)amino]propyl}methanesulfonamide], the melting point lay within 147 to 149 °C.
The same measure for `CCOCc1nc2c(N)nc(C)c(C)c2n1NCc1cccnc1` [Example 19, 2-Ethoxymethyl-6,7-dimethyl-N^1-(pyridin-3-yl)methyl-1H-imidazo[4,5-c]pyridine-1,4-diamine]: 147 to 149 °C; for `CCOCc1nc2cnc(C)c(C)c2n1NC1CCOCC1` [Example 27, 2-Ethoxymethyl-6,7-dimethyl-N-(tetrahydropyranyl)-1H-imidazo[4,5-c]pyridin-1-amine]: 94 to 97 °C; for `Cc1nc(N)c2nc(CO)n(NC3CCC3)c2c1C` [Example 24, (4-Amino-1-cyclobutylamino-6,7-dimethyl-1H-imidazo[4,5-c]pyridin-2-yl)methanol]: 211 to 213 °C.
`CCOCc1nc2c(N)nc(C)c(C)c2n1NCCCNC(=O)OCC` [Example 49]: the melting point is 148 to 150 °C.
The compound `CCOCc1nc2c(N)nc(C)c(C)c2n1NCc1ccc(Cl)c(Cl)c1` [Example 45, N^1-(3,4-Dichlorobenzyl)-2-ethoxymethyl-6,7-dimethyl-1H-imidazo[4,5-c]pyridine-1,4-diamine] displayed a melting point of 186 to 188 °C.
Consider `Cc1nc(N)c2nc(C)n(NC3CCOCC3)c2c1C` [Example 32, 2,6,7-Trimethyl-N^1-(tetrahydropyran-4-yl)-1H-imidazo[4,5-c]pyridine-1,4-diamine], for which the melting point was in the range of 240 to 242 °C.
As to `Cc1nc(N)c2ncn(NC3CCCCC3)c2c1C` [Example 30, N^1-Cyclohexyl-6,7-dimethyl-1H-imidazo[4,5-c]pyridine-1,4-diamine], the melting point is 259 to 261 °C.
`Cc1nc(N)c2nc(CO)n(NCc3ccccc3)c2c1C` [Example 22, (4-Amino-1-benzylamino-6,7-dimethyl-1H-imidazo[4,5-c]pyridin-2-yl)methanol] yielded a melting point above 250 °C.
The same measure for `Cc1nc(N)c2nc(CO)n(NC3CCCCC3)c2c1C` [Example 18, (4-Amino-1-cyclohexylamino-6,7-dimethyl-1H-imidazo[4,5-c]pyridin-2-yl)methanol]: above 250 °C.
Then `CCCc1nc2c(N)nc(C)c(C)c2n1NC1CCCCC1` [Example 33, N^1-Cyclohexyl-6,7-dimethyl-2-propyl-1H-imidazo[4,5-c]pyridine-1,4-diamine], with 177 to 179 °C; and `CCOCc1nc2cnc3cccnc3c2n1NC1CCOCC1` [Example 36, 2-Ethxoymethyl-N-(tetrahydro-2H-pyran-4-yl)-1H-imidazo[4,5-c][1,5]naphthyridin-1-amine], with 130 to 133 °C.
`CCc1nc2c(N)nc(C)c(C)c2n1NC1CCCCC1` [Example 29, N^1-Cyclohexyl-2-ethyl-6,7-dimethyl-1H-imidazo[4,5-c]pyridine-1,4-diamine]: the melting point lay in the range of 190 to 192 °C.
`CCOCc1nc2c(N)nc3cccnc3c2n1NCc1ccccc1` [Example 34, N^1-Benzyl-2-ethxoymethyl-1H-imidazo[4,5-c][1,5]naphthyridine-1,4-diamine] displayed a melting point of 169 to 171 °C.
The same measure for `CCc1nc2c(N)nc3cccnc3c2n1NC(C)C` [Example 7, 2-Ethyl-N^1-isopropyl-1H-imidazo[4,5-c][1,5]naphthyridine-1,4-diamine]: 212 to 213 °C; for `Cc1nc(N)c2nc(C)n(NC3CCCCC3)c2c1C` [Example 28, N^1-Cyclohexyl-2,6,7-trimethyl-1H-imidazo[4,5-c]pyridine-1,4-diamine]: 242 to 244 °C; for `CCOCc1nc2c(N)nc(C)c(C)c2n1NC1CCC1` [Example 23, N^1-Cyclobutyl-2-ethoxymethyl-6,7-dimethyl-1H-imidazo[4,5-c]pyridine-1,4-diamine]: 139 to 141 °C.
Compound `CCOCc1nc2c(N)nc3cccnc3c2n1NC(C)C` [Example 4, 2-(Ethoxymethyl)-N^1-isopropyl-1H-imidazo[4,5-c][1,5]naphthyridine-1,4-diamine] registered a melting point of 150 to 152 °C.
Take `CCOCc1nc2c(N)nc3cccnc3c2n1NC1CCOCC1` [Example 37, 2-Ethxoymethyl-N^1-(tetrahydro-2H-pyran-4-yl)-1H-imidazo[4,5-c][1,5]naphthyridine-1,4-diamine]: the melting point lay in the range of 191 to 193 °C.
`CCCCc1nc2c(N)nc(C)c(C)c2n1NC1CCCCC1` [Example 31, 2-Butyl-N^1-cyclohexyl-6,7-dimethyl-1H-imidazo[4,5-c]pyridine-1,4-diamine] yielded a melting point of 160 to 162 °C.

Source of the values: patent US20090270443A1, “1-AMINO IMIDAZO-CONTAINING COMPOUNDS AND METHODS” (priority 2004, published 2009).
